In this assay the test system is CD2F1 mice, L1210 leukemia ip, survival T/C. In words: NCI In Vivo Anticancer Drug Screen. Data for tumor model L1210 Leukemia (intraperitoneal) in CD2F1 (CDF1) mice. The note with it: higher = longer survival. Summed up:
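Mice carrying a transplanted tumor received test compound or vehicle alone. The value is the measurement in the treated group divided by that in the vehicle-treated control group.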

The mark [1] stands for this setting: endpoint: mean survival time, dose: 100.0 mg/kg/injection, schedule: Q04DX003 (ip), vehicle: saline with Tween-80.
The mark [2] stands for this setting: endpoint: mean survival time, dose: 200.0 mg/kg/injection, schedule: Q04DX003 (ip), vehicle: saline with Tween-80.
[3] abbreviates: endpoint: mean survival time, dose: 400.0 mg/kg/injection, schedule: Q04DX003 (ip), vehicle: saline with Tween-80.
Where [4] appears, read: endpoint: median survival time, dose: 100.0 mg/kg/injection, schedule: Q01DX005 (ip), vehicle: saline.
Setting [5] is: endpoint: mean survival time, dose: 100.0 mg/kg/injection, schedule: Q01DX009 (ip), vehicle: saline with Tween-80.
[6] abbreviates: endpoint: mean survival time, dose: 200.0 mg/kg/injection, schedule: Q01DX009 (ip), vehicle: saline with Tween-80.
The mark [7] stands for this setting: endpoint: mean survival time, dose: 400.0 mg/kg/injection, schedule: Q01DX009 (ip), vehicle: saline with Tween-80.

Structures are written as SMILES. Toxic doses and inconclusive results are not listed.

As to `ClC1(Cl)Cc2ccccc21`, the T/C reads like this: (endpoint: mean survival time, dose: 266.0 mg/kg/injection, schedule: Q04DX003 (ip), vehicle: saline sonified) 96 % of control; (endpoint: mean survival time, dose: 400.0 mg/kg/injection, schedule: Q04DX003 (ip), vehicle: saline sonified) 88 % of control; (endpoint: mean survival time, dose: 600.0 mg/kg/injection, schedule: Q04DX003 (ip), vehicle: saline sonified) 100 % of control; (endpoint: median survival time, dose: 50.0 mg/kg/injection, schedule: Q01DX005 (ip), vehicle: saline with Tween-80) 102 % of control; (endpoint: median survival time, dose: 100.0 mg/kg/injection, schedule: Q01DX005 (ip), vehicle: saline with Tween-80) 113 % of control; (endpoint: median survival time, dose: 200.0 mg/kg/injection, schedule: Q01DX005 (ip), vehicle: saline with Tween-80) 102 % of control.
Turning to `O=C(OC(C(=O)O)C(OC(=O)c1ccccc1)C(=O)O)c1ccccc1` (stereo unspecified) (tested in a mixture with another compound), the T/C is, setting by setting: (endpoint: mean survival time, dose: 50.0 mg/kg/injection, schedule: Q04DX002 (ip), vehicle: saline with Tween-80) 92 % of control; (endpoint: mean survival time, dose: 100.0 mg/kg/injection, schedule: Q01DX001 (ip), vehicle: saline with Tween-80) 105 % of control; (endpoint: mean survival time, dose: 100.0 mg/kg/injection, schedule: Q04DX002 (ip), vehicle: saline with Tween-80) 106 % of control; under setting [1], 101 % of control; (endpoint: mean survival time, dose: 200.0 mg/kg/injection, schedule: Q01DX001 (ip), vehicle: saline with Tween-80) 100 % of control; (endpoint: mean survival time, dose: 200.0 mg/kg/injection, schedule: Q04DX002 (ip), vehicle: saline with Tween-80) 95 % of control. Further, the T/C runs as follows: under setting [2], 106 % of control; (endpoint: mean survival time, dose: 400.0 mg/kg/injection, schedule: Q01DX001 (ip), vehicle: saline with Tween-80) 97 % of control; under setting [3], 98 % of control.
For `CN=NN(C)C(=O)NC`, the T/C is 110 % of control (endpoint: median survival time, dose: 6.25 mg/kg/injection, schedule: Q01DX005 (ip), vehicle: saline); 120 % of control (endpoint: median survival time, dose: 12.5 mg/kg/injection, schedule: Q01DX005 (ip), vehicle: saline); 186 % of control (endpoint: median survival time, dose: 60.0 mg/kg/injection, schedule: Q01DX005 (ip), vehicle: saline); 204 % of control under setting [4].
As for `Cc1cc(Cl)ccc1NC(=O)CCl`, the T/C under setting [5] was 93 % of control; the T/C under setting [1] was 100 % of control; the T/C under setting [6] was 88 % of control; the T/C under setting [2] is 105 % of control; the T/C under setting [7] is 96 % of control; the T/C under setting [3] was 92 % of control.
Take `C1N2CN3CN1CN(C2)C3.[Cl][Pt+2][Cl]`: the T/C (endpoint: mean survival time, dose: 18.75 mg/kg/injection, schedule: Q04DX003 (ip), vehicle: saline) was 103 % of control; the T/C (endpoint: mean survival time, dose: 37.5 mg/kg/injection, schedule: Q04DX003 (ip), vehicle: saline) is 106 % of control; the T/C (endpoint: mean survival time, dose: 75.0 mg/kg/injection, schedule: Q04DX003 (ip), vehicle: saline) is 101 % of control; the T/C (endpoint: mean survival time, dose: 150.0 mg/kg/injection, schedule: Q04DX003 (ip), vehicle: saline) was 107 % of control; the T/C (endpoint: mean survival time, dose: 300.0 mg/kg/injection, schedule: Q04DX003 (ip), vehicle: saline) was 103 % of control.
Take `CCOc1ccc(NC(=O)C(C)O)cc1` (stereo unspecified): the T/C under setting [5] was 95 % of control; the T/C under setting [1] is 103 % of control; the T/C under setting [6] was 101 % of control; the T/C under setting [2] was 97 % of control; the T/C under setting [7] is 107 % of control; the T/C under setting [3] is 97 % of control.
Regarding `CC(C)C(NC1=NCCO1)c1ccccc1` (stereo unspecified), the T/C (endpoint: mean survival time, dose: 12.5 mg/kg/injection, schedule: Q04DX003 (ip), vehicle: saline with Tween-80) is 106 % of control; the T/C (endpoint: mean survival time, dose: 25.0 mg/kg/injection, schedule: Q04DX003 (ip), vehicle: saline with Tween-80) is 98 % of control; the T/C (endpoint: mean survival time, dose: 50.0 mg/kg/injection, schedule: Q04DX003 (ip), vehicle: saline with Tween-80) is 104 % of control.
As to `CCN(CC)CC(O)CNc1ncnc(N)c1C(=C(C)C)c1ccc(Cl)cc1` (stereo unspecified), the T/C reads like this: (endpoint: mean survival time, dose: 25.0 mg/kg/injection, schedule: Q01DX009 (ip), vehicle: saline with Tween-80) 101 % of control; (endpoint: mean survival time, dose: 50.0 mg/kg/injection, schedule: Q01DX009 (ip), vehicle: saline with Tween-80) 97 % of control; under setting [5], 97 % of control; under setting [1], 101 % of control.
On to `COC1C(/C=C/C(C)=O)OC2OC(C)(C)OC21` (stereo unspecified), for which the T/C is, setting by setting: (endpoint: mean survival time, dose: 6.25 mg/kg/injection, schedule: Q01DX009 (ip), vehicle: saline) 110 % of control; (endpoint: mean survival time, dose: 12.5 mg/kg/injection, schedule: Q01DX009 (ip), vehicle: saline) 110 % of control; (endpoint: mean survival time, dose: 25.0 mg/kg/injection, schedule: Q01DX009 (ip), vehicle: saline) 95 % of control; (endpoint: mean survival time, dose: 50.0 mg/kg/injection, schedule: Q01DX009 (ip), vehicle: saline) 103 % of control; (endpoint: mean survival time, dose: 100.0 mg/kg/injection, schedule: Q01DX009 (ip), vehicle: saline) 109 % of control; (endpoint: mean survival time, dose: 200.0 mg/kg/injection, schedule: Q01DX009 (ip), vehicle: saline) 116 % of control.
Turning to `Cn1c(=O)c2c(nc(N3CCOCC3)n2CCCNCC(O)c2cc(O)cc(O)c2)n(C)c1=O` (stereo unspecified), the T/C is, setting by setting: (endpoint: mean survival time, dose: 12.5 mg/kg/injection, schedule: Q01DX005 (ip), vehicle: water) 100 % of control; (endpoint: mean survival time, dose: 25.0 mg/kg/injection, schedule: Q01DX005 (ip), vehicle: water) 96 % of control; (endpoint: mean survival time, dose: 50.0 mg/kg/injection, schedule: Q01DX005 (ip), vehicle: water) 94 % of control; (endpoint: mean survival time, dose: 100.0 mg/kg/injection, schedule: Q01DX005 (ip), vehicle: water) 97 % of control; (endpoint: mean survival time, dose: 200.0 mg/kg/injection, schedule: Q01DX005 (ip), vehicle: water) 92 % of control.
As for `O/N=C/C1CCCC[N-]1.O/N=C/C1CCCC[N-]1.O/N=C/C1CCCC[N-]1.[Cu]` (stereo unspecified), the T/C was 95 % of control (endpoint: median survival time, dose: 0.75 mg/kg/injection, schedule: Q03HX024 (ip), vehicle: saline); 95 % of control (endpoint: median survival time, dose: 1.5 mg/kg/injection, schedule: Q03HX024 (ip), vehicle: saline); 104 % of control (endpoint: median survival time, dose: 6.0 mg/kg/injection, schedule: Q03HX024 (ip), vehicle: saline); 179 % of control (endpoint: median survival time, dose: 8.0 mg/kg/injection, schedule: Q03HX024 (ip), vehicle: saline).
In the case of `O=S(=O)(OCC1C2CC3C(C2)C13)c1ccc(Br)cc1` (stereo unspecified), the T/C is 101 % of control (endpoint: mean survival time, dose: 100.0 mg/kg/injection, schedule: Q04DX003 (ip), vehicle: other); 100 % of control (endpoint: mean survival time, dose: 200.0 mg/kg/injection, schedule: Q04DX003 (ip), vehicle: other); 91 % of control (endpoint: mean survival time, dose: 400.0 mg/kg/injection, schedule: Q04DX003 (ip), vehicle: other).
`BrC/C(=N\N1CCCCCC1)c1ccc(-c2ccccc2)cc1`: the T/C reads like this: (endpoint: mean survival time, dose: 100.0 mg/kg/injection, schedule: Q01DX001 (ip), vehicle: saline) 92 % of control; (endpoint: mean survival time, dose: 200.0 mg/kg/injection, schedule: Q01DX001 (ip), vehicle: saline) 93 % of control; (endpoint: mean survival time, dose: 400.0 mg/kg/injection, schedule: Q01DX001 (ip), vehicle: saline) 94 % of control.
In the case of `Cc1ccc(S(=O)(=O)N/N=C/c2ccccc2)cc1`, the T/C by setting is: (endpoint: mean survival time, dose: 50.0 mg/kg/injection, schedule: Q01DX009 (ip), vehicle: Klucel (hydroxypropylcellulose) (HPC)) 95 % of control; (endpoint: mean survival time, dose: 100.0 mg/kg/injection, schedule: Q01DX009 (ip), vehicle: Klucel (hydroxypropylcellulose) (HPC)) 98 % of control; (endpoint: mean survival time, dose: 200.0 mg/kg/injection, schedule: Q01DX009 (ip), vehicle: Klucel (hydroxypropylcellulose) (HPC)) 101 % of control; (endpoint: mean survival time, dose: 400.0 mg/kg/injection, schedule: Q01DX009 (ip), vehicle: Klucel (hydroxypropylcellulose) (HPC)) 91 % of control.
Consider `CCOC(=O)c1cc(CO)nc2c(Cl)cc(Cl)cc12`, for which the T/C under setting [5] is 91 % of control; the T/C under setting [1] is 93 % of control; the T/C under setting [6] is 90 % of control; the T/C under setting [2] was 90 % of control; the T/C under setting [7] is 90 % of control; the T/C under setting [3] is 93 % of control.
Regarding `Nc1nc2c(c(=O)[nH]1)CC(=O)N2`, the T/C (endpoint: median survival time, dose: 50.0 mg/kg/injection, schedule: Q01DX005 (ip), vehicle: saline) was 98 % of control; the T/C under setting [4] is 100 % of control; the T/C (endpoint: median survival time, dose: 200.0 mg/kg/injection, schedule: Q01DX005 (ip), vehicle: saline) was 104 % of control.
Turning to `O=c1cn[nH]c2c(Cl)cccc12`, the T/C is 106 % of control (endpoint: mean survival time, dose: 100.0 mg/kg/injection, schedule: Q01DX001 (ip), vehicle: carboxymethylcellulose (CMC)) and 95 % of control (endpoint: mean survival time, dose: 200.0 mg/kg/injection, schedule: Q01DX001 (ip), vehicle: carboxymethylcellulose (CMC)).
For `ClCc1cnc[nH]1`, the T/C is 103 % of control (endpoint: mean survival time, dose: 100.0 mg/kg/injection, schedule: Q04DX002 (ip), vehicle: saline) and 96 % of control (endpoint: mean survival time, dose: 200.0 mg/kg/injection, schedule: Q04DX002 (ip), vehicle: saline).

These data come from PubChem BioAssay AID256 (DTP/NCI, 2004).
